Experimental data as given in US10550144B2, “6-aryl-9-glycosylpurines and use thereof” (UNIVERZITA PALACKEHO V OLOMOUCI, priority 2014, dated 2020).

Assays:
[1] = tested on: Vaccinia virus; conditions: Masakatsu et al. 1977, cited from earlier work
[2] = tested on: Herpes simplex virus; conditions: Masakatsu et al. 1977; cited from earlier work
[3] = tested on: Arabidopsis wild-type plants (Col-0) detached leaves, gene transcription; assay: Differential gene expression study (RNA sequencing) in detached senescent leaves; format: in vivo; conditions: 10 μM
Experimental: For isolation of total RNA, Arabidopsis wild-type plants (Col-0) were used, which were either treated with 3MeOBAPA or left untreated. Wild-type plants were grown in soil for 30 days, and then leaves of similar size and chlorophyll content were cut and immediately used for the treatment. At least 20 detached leaves were submerged in 1×MS medium supplemented with 10 μM 3MeOBAPA. Control samples were mock treated with DMSO only. After incubation for 6 h or 48 h in the dark, detached leaves were frozen in liquid nitrogen and used for RNA isolation; 150 mg of liquid nitrogen-ground material was used per isolation. cDNA sequencing libraries were prepared with the Illumina TruSeq Stranded mRNA LT Sample Prep Kit (Illumina, San Diego, Calif.) according to standard Illumina's protocols and sequenced on HiSeq 2500 apparatus (50 bp single-end reads).
To gain insight into the molecular mechanism of 3MeOBAPA action in Arabidopsis we decided to analyze the gene expression patterns via comparison of mock (DMSO)-treated plants with those obtained after i) short time treatment with 3MeOBAPA (6 h) and ii) long time treatment (48 h). This comparison leads to identification of group of genes with similar kinetic of expression and helps to understand possible mechanism of regulation. For data analysis, we performed ab initio method where sequencing reads were mapped to the reference genome.

[4] = tested on: Triticum aestivum cv. Hereward detached leaf segments; assay: Senescence bioassay on detached wheat leaf segments (chlorophyll retention); format: in vivo; conditions: 96 h incubation in the dark at 25° C.; tested 10^−8 M to 10^−4 M
Experimental: Seeds of winter wheat, Triticum aestivum cv. Hereward, were washed under running water for 24 hours and then sown on vermiculite soaked with Knop's solution. They were placed in the growth chamber at 25° C. with a 16/8 h light period at 50 μmol·m^−2·s^−1. After 7 days, the first leaf was fully developed and the second leaf had started to grow. A tip section of the first leaf, approximately 35 mm long, was removed from 5 seedlings and trimmed slightly to a combined weight of 100 mg. The basal ends of the five leaf tips were placed in the wells of a microtiter polystyrene plate containing 150 μL of the tested derivative solution each. The entire plate was inserted into a plastic box lined with paper tissues soaked in distilled water to prevent leaf sections from drying out. After 96 h incubation in the dark at 25° C., the leaves were removed and chlorophyll extracted by heating at 80° C. for 10 min in 5 mL of 80% ethanol (v/v). The sample volume was then restored to 5 mL by the addition of 80% ethanol (v/v). The absorbance of the extract was recorded at 665 nm. In addition, chlorophyll extracts from fresh leaves and leaf tips incubated in deionised water were measured. The results are means of five replicates and the entire test was repeated twice. […] The compounds to be tested were dissolved in dimethylsulfoxide (DMSO) and the solution brought up to 10^−3M with distilled water. […] The activity obtained for 10^−4 M of BAP was postulated as 100%.

[5] = tested on: Amelanchier alnifolia nodal explants; assay: Micropropagation growth response with BAP, Amelanchier alnifolia; conditions: after 35 days in vitro, N = 9
[6] = tested on: Gymnosporia buxifolia shoot-tip explants; assay: Shoot-tip necrosis in in vitro cultures of Gymnosporia buxifolia; conditions: after 4 weeks of culture
[7] = tested on: Dais cotinifolia shoot-tip explants; assay: Shoot multiplication and shoot-tip necrosis in shoot cultures of Dais cotinifolia; format: in vivo; conditions: after 8 weeks of culture
Experimental: Explants were washed thoroughly with 0.1% (v/v) of Tween® 20 for 2 min, and decontaminated with 70% ethanol for 15 sec followed by 0.2% aqueous HgCl2 for 10 min. The explants were rinsed five times with sterile distilled water. […] Each value was presented as the mean±standard error, with three replicates; each replicate consisting of 15 explants per treatment.

[8] = tested on: Harpagophytum procumbens nodal explants; assay: Micropropagation growth response with BAP, Harpagophytum procumbens; conditions: after 35 days in vitro, N = 12

Cc1cccc(CNc2ncnc3c2ncn3C2OC(CO)C(O)C2O)c1C (centres unmarked) [2,3-dimethylbenzyl]
activity in killing Vaccinia virus [1]: No effect
activity in killing Herpes simplex virus [2]: No effect

Cc1ccc(CNc2ncnc3c2ncn3C2OC(CO)C(O)C2O)c(C)c1 (centres unmarked) [2,4-dimethylbenzyl]
activity against Vaccinia virus, strain IHD [1]: low activity

Cc1ccc(C)c(CNc2ncnc3c2ncn3C2OC(CO)C(O)C2O)c1 (centres unmarked) [2,5-dimethylbenzyl]
activity against Vaccinia virus, strain IHD [1]: low activity

Cc1cccc(C)c1CNc1ncnc2c1ncn2[C@@H]1O[C@H](CO)[C@@H](O)[C@@H]1O [2,6-dimethylbenzyl]
activity in killing Vaccinia virus [1]: No effect
activity in killing Herpes simplex virus [2]: No effect

Cc1ccccc1CNc1ncnc2c1ncn2[C@@H]1O[C@H](CO)[C@@H](O)[C@@H]1O [2-methylbenzyl]
activity in killing Vaccinia virus [1]: No effect
activity in killing Herpes simplex virus [2]: No effect

Cc1ccc(CNc2ncnc3c2ncn3[C@@H]2O[C@H](CO)[C@@H](O)[C@@H]2O)cc1C [3,4-dimethylbenzyl]
activity in killing Vaccinia virus [1]: No effect
activity in killing Herpes simplex virus [2]: No effect

COc1cccc(CNc2ncnc3c2ncn3[C@@H]2O[C@H](CO)[C@@H](O)[C@@H]2O)c1 [6-(3-methoxybenzylamino)-9-β-D-arabinofuranosylpurine]
logFC AT1G10585 Basic helix-loop-helix (bHLH) DNA-binding superfamily protein ([3]; 6 h): 0.38
logFC AT1G15540 2-oxoglutarate and Fe(II)-dependent oxygenase superfamily protein ([3]; 6 h): 0.57
logFC AT1G19670 Chlorophyllase-1 (CLH1) ([3]; 6 h): 0.63
logFC AT1G59860 17.6 kDa class I heat shock protein 1 (HSP17.6A) ([3]; 6 h): 0.48
logFC AT1G76640 Calcium-binding EF-hand family protein (CML39) ([3]; 6 h): 0.78
logFC AT2G02010 Glutamate decarboxylase 4 (GAD4) ([3]; 6 h): 0.55
logFC AT2G18150 Peroxidase 15 (PER15) ([3]; 6 h): 0.68
logFC AT2G21900 WRKY transcription factor 59 (WRKY59) ([3]; 6 h): 0.54
logFC AT2G26695 Ran BP2/NZF zinc finger-like superfamily protein ([3]; 6 h): 0.50
logFC AT2G28210 Alpha carbonic anhydrase 2 (ATACA2) ([3]; 6 h): 0.85
logFC AT2G37430 Zinc finger protein ZAT11 ([3]; 6 h): 0.42
logFC AT2G39030 L-ornithine N5-acetyltransferase (NATA1) ([3]; 6 h): 0.56
logFC AT2G47040 Pectin methylesterase Vanguard1 (VGD1) ([3]; 6 h): 2.80
logFC AT3G05610 Pectinesterase/pectinesterase inhibitor 21 (PME21) ([3]; 6 h): 1.80
logFC AT3G09340 Transmembrane amino acid transporter family protein ([3]; 6 h): 0.55
logFC AT3G11340 UDP-Glycosyltransferase superfamily protein ([3]; 6 h): 0.51
logFC AT3G13400 SKU5 similar 13 (SKS13) ([3]; 6 h): 0.82
logFC AT3G28153 Transposable element gene ([3]; 6 h): 0.92
logFC AT3G28155 ARM repeat superfamily protein ([3]; 6 h): 0.59
logFC AT3G44830 Putative phospholipid:diacylglycerol acyltransferase 2 (PDAT2) ([3]; 6 h): 0.38
logFC AT4G01390 TRAF-like family protein ([3]; 6 h): 0.79
logFC AT4G21830 Peptide methionine sulfoxide reductase B7 (MSRB7) ([3]; 6 h): 0.55
logFC AT4G22030 F-box domain, cyclin-like, F-box domain, Skp2-like protein ([3]; 6 h): 0.41
logFC AT4G22620 SAUR-like auxin-responsive family protein ([3]; 6 h): 0.46
logFC AT4G24350 Phosphorylase superfamily protein ([3]; 6 h): 0.64
logFC AT4G26010 Peroxidase 44 (PER44) ([3]; 6 h): 0.53
logFC AT4G31950 Cytochrome P450 82C3 (CYP82C3) ([3]; 6 h): 0.37
logFC AT4G37780 Myb domain protein 87 (MYB87) ([3]; 6 h): 0.41
logFC AT4G39320 Microtubule-associated protein-related ([3]; 6 h): 0.45
logFC AT5G03610 GDSL esterase/lipase ([3]; 6 h): 0.42
logFC AT5G52670 Copper transport family protein ([3]; 6 h): 0.57
logFC AT5G62720 Integral membrane HPP family protein ([3]; 6 h): 0.44
logFC AT5G63270 RPM1-interacting protein 4 (RIN4) family protein ([3]; 6 h): 0.56
logFC AT2G26695 Ran BP2/NZF zinc finger-like superfamily protein ([3]; 48 h): 5.90
logFC AT3G11340 UDP-Glycosyltransferase superfamily protein ([3]; 48 h): 6.60
logFC AT3G28153 Transposable element gene ([3]; 48 h): 5.70
number of downregulated genes (P≤0.05) ([3]; long time treatment (48 h) vs mock (DMSO)): 7 095 genes
maximum effective concentration [4]: 10^−4 mol · l^−1

OC[C@H]1O[C@@H](n2cnc3c(NCc4ccccc4)ncnc32)[C@@H](O)[C@@H]1O [6-benzylamino-9-β-D-arabinofuranosylpurine]
activity in killing Vaccinia virus [1]: No effect
activity in killing Herpes simplex virus [2]: No effect

Cc1cccc(CNc2ncnc3c2ncn3[C@@H]2O[C@H](CO)[C@@H](O)[C@@H]2O)c1 [Example 3CH3BAPA, 6-(3-methylbenzylamino)-9-β-D-arabinofuranosylpurine]
Fresh weight (g) mean SE ([5]; 5 μM compound with 10 μM BAP): 0.249 ± 0.0594 g
Shoot length (mm) mean SE ([5]; 5 μM compound with 10 μM BAP): 14.11 ± 1.670 mm
Shoot no. mean SE ([5]; 5 μM compound with 10 μM BAP): 7.6 ± 2.10
Fresh weight (g) mean SE ([5]; 10 μM compound with 10 μM BAP): 0.349 ± 0.1025 g
Shoot length (mm) mean SE ([5]; 10 μM compound with 10 μM BAP): 18.89 ± 2.288 mm
Shoot no. mean SE ([5]; 10 μM compound with 10 μM BAP): 10.6 ± 2.75
Fresh weight (g) mean SE ([5]; 20 μM compound with 10 μM BAP): 0.563 ± 0.0729 g
Shoot length (mm) mean SE ([5]; 20 μM compound with 10 μM BAP): 16.22 ± 1.730 mm
Shoot no. mean SE ([5]; 20 μM compound with 10 μM BAP): 13.7 ± 2.06
Fresh weight (g) mean SE ([5]; 30 μM compound with 10 μM BAP): 0.335 ± 0.0877 g
Shoot length (mm) mean SE ([5]; 30 μM compound with 10 μM BAP): 18.33 ± 3.122 mm
Shoot no. mean SE ([5]; 30 μM compound with 10 μM BAP): 11.6 ± 2.99
activity in killing Vaccinia virus [1]: No effect
STN [%] (shoot-tip necrosis) ([6]; 5 μM in MS medium): 53.3 ± 0.24d %
Shoot length [cm] ([6]; 5 μM in MS medium): 1.36 ± 0.27bc cm
Shoots [explant^−1] […] ([6]; 5 μM in MS medium): 1.0 ± 0.0a explant^−1
STN [%] (shoot-tip necrosis) ([6]; 10 μM in MS medium): 40.0 ± 0.20fg %
Shoot length [cm] ([6]; 10 μM in MS medium): 1.82 ± 0.17b cm
Shoots [explant^−1] […] ([6]; 10 μM in MS medium): 1.0 ± 0.0a explant^−1
STN [%] (shoot-tip necrosis) ([6]; 20 μM in MS medium): 22.6 ± 0.28hi %
Shoot length [cm] ([6]; 20 μM in MS medium): 3.30 ± 0.14a cm
Shoots [explant^−1] […] ([6]; 20 μM in MS medium): 1.0 ± 0.0a explant^−1
STN [%] (shoot-tip necrosis) ([6]; 30 μM in MS medium): 13.3 ± 0.24j %
Shoot length [cm] ([6]; 30 μM in MS medium): 3.00 ± 0.11a cm
Shoots [explant^−1] […] ([6]; 30 μM in MS medium): 1.0 ± 0.0a explant^−1
Morphogenesis in vitro ([7]; 5 μM in MS medium): Green shoots
STN [%] (shoot-tip necrosis) ([7]; 5 μM in MS medium): 52.2 ± 0.89b %
Shoot length [cm] ([7]; 5 μM in MS medium): 1.42 ± 0.21bc cm
Shoots [explant^−1] […] ([7]; 5 μM in MS medium): 1.0 ± 0.00c explant^−1
Morphogenesis in vitro ([7]; 10 μM in MS medium): Green shoots
STN [%] (shoot-tip necrosis) ([7]; 10 μM in MS medium): 50.0 ± 0.75bc %
Shoot length [cm] ([7]; 10 μM in MS medium): 1.86 ± 0.14ab cm
Shoots [explant^−1] […] ([7]; 10 μM in MS medium): 1.0 ± 0.00c explant^−1
Morphogenesis in vitro ([7]; 20 μM in MS medium): Pale green shoots
STN [%] (shoot-tip necrosis) ([7]; 20 μM in MS medium): 45.5 ± 0.95d %
Shoot length [cm] ([7]; 20 μM in MS medium): 1.94 ± 0.09ab cm
Shoots [explant^−1] […] ([7]; 20 μM in MS medium): 1.8 ± 0.48bc explant^−1
Morphogenesis in vitro ([7]; 30 μM in MS medium): Pale green shoots
STN [%] (shoot-tip necrosis) ([7]; 30 μM in MS medium): 31.3 ± 1.12ef %
Shoot length [cm] ([7]; 30 μM in MS medium): 2.26 ± 0.22a cm
Shoots [explant^−1] […] ([7]; 30 μM in MS medium): 2.2 ± 0.32b explant^−1
Fresh weight (g) mean SE ([8]; 5 μM compound with 10 μM BAP): 0.8607 ± 0.1884 g
Shoot length (mm) mean SE ([8]; 5 μM compound with 10 μM BAP): 28.6 ± 4.397 mm
Shoot no. mean SE ([8]; 5 μM compound with 10 μM BAP): 2.8 ± 0.573
Fresh weight (g) mean SE ([8]; 10 μM compound with 10 μM BAP): 1.0523 ± 0.2439 g
Shoot length (mm) mean SE ([8]; 10 μM compound with 10 μM BAP): 45.8 ± 7.094 mm
Shoot no. mean SE ([8]; 10 μM compound with 10 μM BAP): 2.6 ± 0.340
Fresh weight (g) mean SE ([8]; 20 μM compound with 10 μM BAP): 0.8456 ± 0.1339 g
Shoot length (mm) mean SE ([8]; 20 μM compound with 10 μM BAP): 27 ± 3.531 mm
Shoot no. mean SE ([8]; 20 μM compound with 10 μM BAP): 2.3 ± 0.423
Fresh weight (g) mean SE ([8]; 30 μM compound with 10 μM BAP): 1.1419 ± 0.213 g
Shoot length (mm) mean SE ([8]; 30 μM compound with 10 μM BAP): 40.6 ± 4.831 mm
Shoot no. mean SE ([8]; 30 μM compound with 10 μM BAP): 3.8 ± 0.593
activity in killing Herpes simplex virus [2]: No effect
